pEC50: −log10 of the molar value.

Chain of recombinant human S1P1 receptor (P21453 whole entry): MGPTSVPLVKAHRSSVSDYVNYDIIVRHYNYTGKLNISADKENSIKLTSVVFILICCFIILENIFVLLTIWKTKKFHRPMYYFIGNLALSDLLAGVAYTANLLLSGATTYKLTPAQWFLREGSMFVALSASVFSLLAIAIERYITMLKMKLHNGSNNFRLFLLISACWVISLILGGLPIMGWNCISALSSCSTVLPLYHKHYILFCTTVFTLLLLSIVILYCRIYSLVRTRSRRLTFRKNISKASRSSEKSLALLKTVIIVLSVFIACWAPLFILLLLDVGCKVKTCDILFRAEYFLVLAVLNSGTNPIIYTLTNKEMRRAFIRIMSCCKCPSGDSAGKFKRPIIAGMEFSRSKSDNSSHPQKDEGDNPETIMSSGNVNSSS

One assay deals with recombinant human S1P1 receptor (Homo sapiens, UniProt P21453). The assay can be described thus: GTPγS assay to determine EC50 values. Particulars: agonist concentration inducing 50% of maximal specific 35S-GTPγS binding; membranes of CHO cells expressing recombinant human S1P1. The class given is biochemical. As to the method:
GTPγS Assay to Determine EC50 Values
GTPγS binding assays are performed in 96 well microtiter plates (Nunc, 442587) in a final volume of 200 μl, using membrane preparations of CHO cells expressing recombinant human S1P1 receptor. Assay conditions are 20 mM Hepes (Fluka, 54461), 100 mM NaCl (Fluka, 71378), 5 mM MgCl2 (Fluka, 63064), 0.1% BSA (Calbiochem, 126609), 1 μM GDP (Sigma, G-7127), 2.5% DMSO (Fluka, 41644), 50 pM ^35S-GTPγS (Amersham Biosciences, SJ1320). The pH is 7.4. Test compounds are dissolved and diluted in 100% DMSO and pre-incubated at room temperature for 30 min in 150 μl of the above assay buffer, in the absence of ^35S-GTPγS. After addition of 50 μl of ^35S-GTPγS, the assay is incubated for 1 h at rt. The assay is terminated by transfer of the reaction mixture to a Multiscreen plate (Millipore, MAHFC1H60) using a cell harvester from Packard Biosciences, and the plates are washed with ice-cold 10 mM Na2HPO4/NaH2PO4 (70%/30%), dried, sealed at the bottom and, after addition of 25 μl MicroScint20 (Packard Biosciences, order #6013621), sealed on the top. Membrane-bound ^35S-GTPγS is measured with a TopCount from Packard Biosciences.
Specific binding is determined by subtracting non-specific binding from maximal binding. Maximal binding is the amount of cpm bound to the Multiscreen plate in the presence of 10 μM of S1P. Non-specific binding is the amount of binding in the absence of an agonist in the assay.
Consider `CNCc1sc(-c2nc(-c3cc(C)c(OCC(O)CNC(=O)CO)c(C)c3)no2)cc1C` (racemic) [Example 21], for which the negative-log EC50 (pEC50) was 8.42. With `Cc1cc(-c2nc(-c3cc(C)c(OCC(O)CNC(=O)CO)c(C)c3)no2)sc1CNC(C)C` (racemic) [Example 24], the pEC50 is 7.96. With `CCCN(C)Cc1sc(-c2nc(-c3cc(C)c(OCC(O)CNC(=O)CO)c(C)c3)no2)cc1C` (racemic) [Example 28], the pEC50 was 9.70. Turning to `Cc1cc(-c2nc(-c3cc(C)c(OCC(O)CNC(=O)CO)c(C)c3)no2)sc1CN(C)CCO` (racemic) [Example 30], the negative logarithm of the EC50 (pEC50) is 7.99. With `CCN(CCO)Cc1sc(-c2nc(-c3cc(C)c(OCC(O)CNC(=O)CO)c(C)c3)no2)cc1C` (racemic) [Example 31], the pEC50 was 8.09. Still for that read-out and setting: as for `Cc1cc(-c2nc(-c3cc(C)c(OCC(O)CNC(=O)CO)c(C)c3)no2)sc1CN1CCCC1` (racemic) [Example 32], the figure is 7.95; as for `Cc1cc(-c2nc(-c3cc(C)c(OCC(O)CNC(=O)CO)c(C)c3)no2)sc1CN1CCCCC1` (racemic) [Example 33], 8.01.

As to `CCN(CC)Cc1sc(-c2nc(-c3cc(C)c(CCC(=O)O)c(C)c3)no2)cc1C` [Example 44], the negative logarithm of the EC50 (pEC50) was 7.92. With `CCc1cc(-c2noc(-c3cc(C)c(CN(C)CC)s3)n2)cc(C)c1OC[C@@H](O)CNC(=O)CO` [Example 52], the pEC50 was 8.66.

On to `CCCCN(C)Cc1sc(-c2nc(-c3cc(C)c(OC[C@@H](O)CNC(=O)CO)c(CC)c3)no2)cc1C` [Example 54], for which the pEC50 is 8.70.

In the case of `CCc1cc(-c2noc(-c3cc(C)c(CN(CC)CC)s3)n2)cc(C)c1OC[C@@H](O)CNC(=O)CO` [Example 56], the pEC50 was 8.60. For the molecule `CCCN(CC)Cc1sc(-c2nc(-c3cc(C)c(OC[C@@H](O)CNC(=O)CO)c(CC)c3)no2)cc1C` [Example 57], the pEC50 was 8.55.

Consider `CCc1cc(-c2noc(-c3cc(C)c(CN(CC)C(C)C)s3)n2)cc(C)c1OC[C@@H](O)CNC(=O)CO` [Example 58], for which the negative logarithm of the EC50 (pEC50) was 8.48. As for `CCCCN(CC)Cc1sc(-c2nc(-c3cc(C)c(OC[C@@H](O)CNC(=O)CO)c(CC)c3)no2)cc1C` [Example 59], the negative logarithm of the EC50 (pEC50) is 8.15. Turning to `CCc1cc(-c2nc(-c3cc(C)c(OC[C@H](O)CO)c(CC)c3)no2)sc1CN(C)C` [Example 81], the negative logarithm of the EC50 (pEC50) is 8.59. Regarding `CCCN(C)Cc1sc(-c2nc(-c3cc(C)c(OC[C@@H](O)CNC(=O)CO)c(CC)c3)no2)cc1CC` [Example 84], the pEC50 was 9.10. Regarding `CCCN(C)Cc1sc(-c2nc(-c3cc(C)c(CCC(=O)O)c(CC)c3)no2)cc1CC` [Example 86], the negative-log EC50 (pEC50) is 8.04.

`Cc1cc(-c2nc(-c3cc(C)c(OC[C@@H](O)CNC(=O)CO)c(C)c3)no2)sc1CN(C)C` [Example 87, N-((2S)-3-{4-[5-(5-Dimethylaminomethyl-4-methyl-thiophen-2-yl)-[1,2,4]oxadiazol-3-yl]-2,6-dimethyl-phenoxy}-2-hydroxy-propyl)-2-hydroxy-acetamide]: the negative-log EC50 (pEC50) is 9.22. On the same count and under the same terms, as for `CCN(Cc1sc(-c2nc(-c3cc(C)c(OC[C@@H](O)CNC(=O)CO)c(C)c3)no2)cc1C)C(C)C` [Example 92, N-{(2S)-3-[4-(5-{5-[(Ethyl-isopropyl-amino)-methyl]-4-methyl-thiophen-2-yl}-[1,2,4]oxadiazol-3-yl)-2,6-dimethyl-phenoxy]-2-hydroxy-propyl}-2-hydroxy-acetamide], the figure is 9.30; as for `CCCN(C)Cc1sc(-c2nc(-c3cc(C)c(CCC(=O)NCC(=O)OC)c(CC)c3)no2)cc1C` [Example 98], 7.76. `CCc1cc(-c2noc(-c3cc(C)c(CN(CC)CC)s3)n2)cc(C)c1CCC(=O)NCC(=O)O` [Example 106]: the pEC50 was 8.07.

Turning to `CCCN(C)Cc1sc(-c2nc(-c3cc(C)c(CCC(=O)NCCC(=O)O)c(CC)c3)no2)cc1C` [Example 115], the negative logarithm of the EC50 (pEC50) was 7.98. For the molecule `CCCN(CC)Cc1sc(-c2nc(-c3cc(C)c(CCC(=O)NCCC(=O)O)c(CC)c3)no2)cc1C` [Example 119], the pEC50 was 8.68.

Turning to `CCc1cc(-c2noc(-c3cc(C)c(CN(CC)CC)s3)n2)cc(C)c1CCC(=O)NCCO` [Example 136], the pEC50 is 7.73. On the same count and under the same terms, as for `CCc1cc(-c2nc(-c3cc(C)c(CN(CC)CC)s3)no2)cc(C)c1OC[C@@H](O)CNC(=O)CO` [Example 149], the figure is 8.80; as for `CCc1cc(-c2nnc(-c3cc(C)c(CN(C)C)s3)o2)cc(C)c1OC[C@@H](O)CNC(=O)CO` [Example 150, N-((2S)-3-{4-[5-(5-Dimethylaminomethyl-4-methyl-thiophen-2-yl)-[1,3,4]oxadiazol-2-yl]-2-ethyl-6-methyl-phenoxy}-2-hydroxy-propyl)-2-hydroxy-acetamide], 8.27; as for `CCN(CC)Cc1sc(-c2nc(-c3cc(C)c(N)c(Cl)c3)no2)cc1C` [Example 187, 2-Chloro-4-[5-(5-diethylaminomethyl-4-methyl-thiophen-2-yl)-[1,2,4]oxadiazol-3-yl]-6-methyl-phenylamine], 7.66. Same read-out and setting: as for `CCN(CC)Cc1sc(-c2nc(-c3cc(C)c(OC[C@@H](O)CNC(=O)CO)c(OC)c3)no2)cc1C` [Example 194, N-((2S)-3-{4-[5-(5-Diethylaminomethyl-4-methyl-thiophen-2-yl)-[1,2,4]oxadiazol-3-yl]-2-methoxy-6-methyl-phenoxy}-2-hydroxy-propyl)-2-hydroxy-acetamide], the figure is 8.60. Consider `CCN(CC)Cc1sc(-c2nc(-c3cc(C)c(OC[C@@H](O)CNC(=O)CO)c(Cl)c3)no2)cc1C` [Example 195, N-((2S)-3-{4-[5-(5-Diethylaminomethyl-4-methyl-thiophen-2-yl)-[1,2,4]oxadiazol-3-yl]-2-chloro-6-methyl-phenoxy}-2-hydroxy-propyl)-2-hydroxy-acetamide], for which the negative-log EC50 (pEC50) is 9.70.

As for `CCN(CC)Cc1sc(-c2nc(-c3ccc(OCC(O)CNC(=O)CO)cc3C)no2)cc1C` (stereo not shown) [Example 196, N-(3-{4-[5-(5-Diethylaminomethyl-4-methyl-thiophen-2-yl)-[1,2,4]oxadiazol-3-yl]-3-methyl-phenoxy}-2-hydroxy-propyl)-2-hydroxy-acetamide], the pEC50 is 7.89. As to `CCN(CC)Cc1sc(-c2nc(-c3cc(C)c(OC[C@@H](O)CO)c(Cl)c3)no2)cc1C` [Example 198, (2S)-3-{2-Chloro-4-[5-(5-diethylaminomethyl-4-methyl-thiophen-2-yl)-[1,2,4]oxadiazol-3-yl]-6-methyl-phenoxy}-propane-1,2-diol], the pEC50 is 8.68. Consider `CCc1cc(-c2noc(-c3cc(C)c(CN(CC)CC)s3)n2)cc(C)c1OC[C@@H](O)CN1CCC(C(=O)O)C1` (stereo partly drawn) [Example 205, 1-((2S)-3-{4-[5-(5-Diethylaminomethyl-4-methyl-thiophen-2-yl)-[1,2,4]oxadiazol-3-yl]-2-ethyl-6-methyl-phenoxy}-2-hydroxy-propyl)-pyrrolidine-3-carboxylic acid], for which the pEC50 was 7.74.

Consider `CCc1cc(-c2noc(-c3cc(C)c(CN(CC)CC)s3)n2)cc(C)c1OC[C@@H](O)CNCCO` [Example 210], for which the pEC50 is 8.02. `CCc1cc(-c2noc(-c3cc(C)c(CN(CC)CC)s3)n2)cc(C)c1OC[C@@H](O)CNC(CO)CO` [Example 214]: the pEC50 is 8.77. As to `CCc1cc(-c2noc(-c3cc(C)c(CN(CC)CC)s3)n2)cc(C)c1OC[C@@H](O)CNCC(=O)O` [Example 220], the pEC50 is 8.47. With `CCc1cc(-c2noc(-c3cc(C)c(CN(CC)CC)s3)n2)cc(C)c1OC[C@@H](O)CNC(=O)CCO` [Example 223], the negative-log EC50 (pEC50) is 8.21.

Turning to `CCc1cc(-c2noc(-c3cc(C)c(CN(CC)CC)s3)n2)cc(C)c1OC[C@@H](O)CNC(=O)CN` [Example 225], the negative logarithm of the EC50 (pEC50) was 8.96.

As for `CCc1cc(-c2noc(-c3cc(C)c(CN(CC)CC)s3)n2)cc(C)c1OC[C@@H](O)CNC(=O)CNC` [Example 226], the negative-log EC50 (pEC50) is 8.46.

Another assay concerns circulating lymphocytes. The assay can be described thus: Assessment of in vivo efficacy: circulating lymphocytes after oral administration. As to conditions: 3 h after oral administration of 10 mg/kg, compared to animals treated with vehicle only; mean ± SEM. Further details: species or system normotensive male Wistar rats.
Method: Assessment of In Vivo Efficacy
The efficacy of the compounds of Formula (I) is assessed by measuring the circulating lymphocytes after oral administration of 3 to 30 mg/kg of a compound of Formula (I) to normotensive male Wistar rats. The animals are housed in climate-controlled conditions with a 12 h-light/dark cycle, and have free access to normal rat chow and drinking water. Blood is collected before and 3, 6 and 24 h after drug administration. Full blood is subjected to hematology using Advia Hematology system (Bayer Diagnostics, Zürich, Switzerland).
All data are presented as mean±SEM. Statistical analyses are performed by analysis of variance (ANOVA) using Statistica (StatSoft) and the Student-Newman-Keuls procedure for multiple comparisons. The null hypothesis is rejected when p<0.05.
Turning to `CCCN(C)Cc1sc(-c2nc(-c3cc(C)c(OCC(O)CNC(=O)CO)c(C)c3)no2)cc1C` (racemic) [Example 28], the Lymphocyte counts is −68 ± 3%. For `CCc1cc(-c2noc(-c3cc(C)c(CN(CC)CC)s3)n2)cc(C)c1OC[C@@H](O)CNC(=O)CO` [Example 56], the Lymphocyte counts is reported as −68 ± 1%.
